Reference: patent US20210300894A1, “CRYSTALLINE FORM OF N-[1-(5-CYANO-PYRIDIN-2-YLMETHYL)-1 H-PYRAZOL-3-YL]-2-[4-(1-TRIFLUO-ROMETHYL-CYCLOPROPYL)-PHENYL]-ACETAMIDE” (IDORSIA PHARMACEUTICALS LTD, priority 2017, published 2021)

Assay: Gravimetric vapour sorption (GVS) analysis, moisture sorption at 25° C.
Format: physicochemical
Conditions: stepping mode in steps of 5% RH, classification according to Ph. Eur.
Method: Gravimetric Vapour Sorption (GVS) Analysis
Measurements were performed on an IGASORP Model HAS-036-080 moisture sorption instrument (Hiden Isochema, Warrington, UK) operated in stepping mode at 25° C. The sample was allowed to equilibrate at the starting relative humidity (RH) before starting a pre-defined humidity program in steps of 5% ARH and with a maximal equilibration time of 24 hours per step. About 20 to 30 mg of each sample was used.

Compound: N#Cc1ccc(Cn2ccc(NC(=O)Cc3ccc(C4(C(F)(F)F)CC4)cc3)n2)nc1 [COMPOUND in crystalline form 1, N-[1-(5-cyano-pyridin-2-ylmethyl)-1H-pyrazol-3-yl]-2-[4-(1-trifluoromethyl-cyclopropyl)-phenyl]-acetamide]
- Moisture sorption at 25° C. (GVS), hygroscopicity according to Ph. Eur.: not hygroscopic according to Ph. Eur
